Assay results: the supplement of paper PMC11061612

Experiments:
Assay in all cases: Bliss excess, mean over the matrix (fraction); higher = more synergy
[1] = tested on: KYSE-70 (Esophageal Squamous Cell Carcinoma)
Method in brief: (§1)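 Cell lines grown in DMEM/F12 or RPMI with 10% FBS were plated in 1536-well plates and held 24 hours at 37°C, 5% CO2 before 72 hours of exposure to two-drug dose matrices, with DMSO typically at 0.2%. CellTiter-Glo 2.0 luminescence gave viability, which was converted to inhibition. Vehicle wells were set to 0 and blank wells to 1. Combination Emax is the second-highest inhibition in the matrix, and Bliss excess is the observed combination effect minus the expected EA + EB − EA·EB, where EA and EB are the single-agent effects.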

[2] = tested on: BALL-1 (B-Lymphoblastic Leukemia)
Method in brief: as §1

[3] = tested on: LOUCY (T-Lymphoblastic Leukemia)
Method in brief: as §1

[4] = tested on: NCI-H1623 (Lung Adenocarcinoma)
Method in brief: as §1

[5] = tested on: HSC-3 (Oral Cavity Carcinoma)
Method in brief: as §1

[6] = tested on: PC-14 (Lung Adenocarcinoma)
Method in brief: as §1

[7] = tested on: Becker (Low Grade Glioma)
Method in brief: as §1

[8] = tested on: NCI-H1755 (Lung Adenocarcinoma)
Method in brief: as §1

[9] = tested on: NCI-H1155 (Non-Small Cell Lung Carcinoma)
Method in brief: as §1

[10] = tested on: RERF-LC-KJ (Lung Adenocarcinoma)
Method in brief: as §1

[11] = tested on: AsPC-1 (Pancreatic Carcinoma)
Method in brief: as §1

[12] = tested on: FLO-1 (Esophageal Adenocarcinoma)
Method in brief: as §1

[13] = tested on: RPMI-8866 (Chronic Myelogenous Leukemia)
Method in brief: as §1

[14] = tested on: NCI-H1563 (Lung Adenocarcinoma)
Method in brief: as §1

[15] = tested on: NCI-H810 (Non-Small Cell Lung Carcinoma)
Method in brief: as §1

RT4 (Bladder Carcinoma) = tested on: RT4 (Bladder Carcinoma)
Method in brief: as §1

[16] = tested on: LAMA-84 (Chronic Myelogenous Leukemia)
Method in brief: as §1

[17] = tested on: SK-MM-2 (Plasma Cell Myeloma)
Method in brief: as §1

786-0 (Kidney Carcinoma) = tested on: 786-0 (Kidney Carcinoma)
Method in brief: as §1

HuO-3N1 (Osteosarcoma) = tested on: HuO-3N1 (Osteosarcoma)
Method in brief: as §1

SMILES | Bliss excess [1] | Bliss excess [2] | Bliss excess [3] | Bliss excess [4] | Bliss excess [5] | Bliss excess [6] | Bliss excess [7] | Bliss excess [8] | Bliss excess [9] | Bliss excess [10] | Bliss excess [11] | Bliss excess [12] | Bliss excess [13] | Bliss excess [14] | Bliss excess [15] | Bliss excess (RT4 (Bladder Carcinoma)) | Bliss excess [16] | Bliss excess [17] | Bliss excess (786-0 (Kidney Carcinoma)) | Bliss excess (HuO-3N1 (Osteosarcoma))
Cc1nc(Nc2ncc(C(=O)Nc3c(C)cccc3Cl)s2)cc(N2CCN(CCO)CC2)n1 [Dasatinib] + CC(=O)Nc1cccc(-n2c(=O)n(C3CC3)c(=O)c3c(Nc4ccc(I)cc4F)n(C)c(=O)c(C)c32)c1 [Trametinib] (first compound max 2 µM, 7x7, partner max 1 µM) | -0.0729 | -0.0108 | 0.0286 | -0.0775 | -0.0444 | 0.0079 | 0.0234 | -0.0052 | -0.0132 | -0.0295 | 0.0506 | 0.122 | 0.073 | -0.111 | -0.0565 | -0.0057 | 0.0037 | -0.0157 | -0.0592 | -0.159
COc1cccc2c1C(=O)c1c(O)c3c(c(O)c1C2=O)C[C@@](O)(C(=O)CO)C[C@@H]3O[C@H]1C[C@H](N)[C@H](O)[C@H](C)O1 [Doxorubicin] + Cc1cc2ncnn2cc1Nc1ncc2c(n1)n(C1CCOCC1)c(=O)n2C [AZD7648] (first compound max 1 µM, 7x7, partner max 10 µM) | 0.0271 | 0.117 | 0.0893 | 0.0258 | 0.0907 | 0.0728 | 0.0406 | 0.104 | 0.138 | 0.0113 | -0.033 | 0.027 | 0.193 | 0.0572 | 0.0213 | 0.039 | 0.121 | -0.0137 | 0.082 | -0.0523
COc1cc2ncnc(Nc3ccc(F)c(Cl)c3)c2cc1OCCCN1CCOCC1 [Gefitinib] + CC(C)n1c(=O)n(C)c2cnc3cc(F)c(-c4ccc(OCCCN5CCCCC5)nc4)cc3c21 [AZD1390] (first compound max 10 µM, 7x7, partner max 0.3 µM) | -0.038 | -0.07 | 0.0024 | -0.0268 | -0.0649 | -0.0565 | -0.0247 | -0.0854 | -0.056 | -0.0807 | -0.0975 | -0.0696 | -0.0857 | -0.0757 | -0.0863 | -0.176 | -0.0328 | -0.0267 | -0.0652 | -0.0756
CS(=O)(=O)CCNCc1ccc(-c2ccc3ncnc(Nc4ccc(OCc5cccc(F)c5)c(Cl)c4)c3c2)o1 [Lapatinib] + C[C@@H](Oc1cc(-c2cnn(C3CCNCC3)c2)cnc1N)c1c(Cl)ccc(F)c1Cl [Crizotinib] (first compound max 10 µM, 7x7, partner max 10 µM) | -0.0359 | 0.0146 | -0.102 | 0.0555 | -0.0395 | -0.028 | -0.0387 | -0.0468 | -0.0185 | 0.074 | -0.031 | -0.0535 | 0.005 | 0.0087 | -0.0386 | -0.0511 | 0.001 | -0.0207 | -0.0666 | -0.0423
CC(=O)c1c(C)c2cnc(Nc3ccc(N4CCNCC4)cn3)nc2n(C2CCCC2)c1=O [Palbociclib] + CC1(C)CCC(CN2CCN(c3ccc(C(=O)NS(=O)(=O)c4ccc(NCC5CCOCC5)c([N+](=O)[O-])c4)c(Oc4cnc5[nH]ccc5c4)c3)CC2)=C(c2ccc(Cl)cc2)C1 [Venetoclax] (first compound max 10 µM, 7x7, partner max 1 µM) | -0.0465 | -0.0053 | 0.083 | 0.011 | 0.0148 | -0.0198 | -0.0205 | 0.0337 | 0.0241 | -0.0314 | -0.0715 | -0.019 | -0.0632 | -0.0079 | -0.0585 | 0.0032 | 0.0201 | -0.0265 | 0.0042 | -0.0312
CC(=O)c1c(C)c2cnc(Nc3ccc(N4CCNCC4)cn3)nc2n(C2CCCC2)c1=O [Palbociclib] + Cc1c2c(nn1C)CSCc1cc(n(C)n1)CSc1cc(c3ccccc3c1)OCCCc1c(C(=O)O)n(C)c3c-2c(Cl)ccc13 [AZD5991] (first compound max 10 µM, 7x7, partner max 1 µM) | -0.0462 | -0.0683 | 0.0154 | -0.0321 | -0.0811 | -0.0106 | 0.0059 | -0.0188 | -0.059 | -0.0723 | -0.0859 | 0.0084 | -0.004 | -0.098 | -0.0444 | -0.0244 | 0.0056 | 0.0033 | 0.0201 | -0.0972
CC(=O)c1c(C)c2cnc(Nc3ccc(N4CCNCC4)cn3)nc2n(C2CCCC2)c1=O [Palbociclib] + Cn1cnc2c(F)c(Nc3ccc(Br)cc3Cl)c(C(=O)NOCCO)cc21 [Selumetinib] (first compound max 10 µM, 7x7, partner max 10 µM) | -0.0096 | -0.12 | -0.0138 | 0.0398 | -0.0418 | 0.0408 | 0.0393 | 0.0425 | -0.0201 | -0.0208 | -0.0664 | 0.0209 | 0.0259 | 0.0092 | -0.0697 | 0.0209 | -0.0263 | -0.021 | 0.0079 | -0.0601
